# Columns and labels:
# CHO-KCNQ cells = test: ATP-induced DMR signals of CHO-KCNQ cells on RWG biosensor; assay type: cell-based, Chinese hamster
# Method: Referring to the Figures, FIGS. 1A and 1B show cross-sectional configurations of two examples of RWG biosensors used for living cell sensing. In FIG. 1A a cell (10) is directly cultured onto the unmodified or bare surface of the waveguide thin film (15) of a RWG biosensor (18) having a waveguide grating atop a substrate. In FIG. 1B a cell (10) is cultured onto the surface of an inorganic thin film (19) which has been previously deposited onto the surface of the waveguide thin film (15). Here a thin film of silicon oxide of about 1 nm to about 5 nm is directly deposited onto the surface of a waveguide thin film of niobium oxide by vapor deposition method. Each biosensor associated cell has an approximate penetration depth (20). […] CHO-KCNQ is an engineered CHO cell having over-expressed a potassium ion channel KCNQ2. FIGS. 2A and 2B compare the ATP-induced DMR signals, response units versus time, of CHO-KCNQ cells: The FIG. 2A cells were cultured on an unmodified or bare niobia surface of the waveguide thin film of a Corning® Epic™ RWG biosensor; and FIG. 2B cells were cultured on a biosensor having, for example, a discontinuous thin film modified waveguide surface of silicon dioxide particles. […]
# [1] = tested on: endogenous P2Y receptors in HEK 293 cells; test: ATP-induced DMR signals of HEK293 cells on coated RWG biosensor surfaces; assay type: cell-based, human
# Text: Three surface densities were individually prepared by slow evaporation of 0.0015%, 0.1% and 1.5 weight % gelatin solutions, as described above, covering the biosensor surfaces. The resultant respective gelatin surfaces were referred to as low-, medium-, and high-density gelatin surfaces, respectively. HEK293 cells were separately cultured onto these surfaces.
# P2Y receptors belong to the family of G protein-coupled receptors. HEK 293 cells endogenously express several isoforms of P2Y receptors. […] The arrow (540) indicates when the stimulus, an ATP solution, was introduced.
# FIGS. 6A and 6B show the reproducibility and robustness of a cell assay of the disclosure using HEK293 cells that were cultured on a low-density gelatin-coated 384-well Epic™ biosensor microplate. A 10 micromolar ATP solution was added to selected well of column 15 of the microplate. The ATP-induced DMR response signals within one column (16 wells) were recorded in real time in seconds and plotted in FIG. 6A. The amplitudes of the initial positive DMR (P-DMR) event (wavelength shift) of the ATP-induced DMR signals were plotted as a function of well numbers 1-16 in FIG. 6B. The assay Coefficient of Variability (CV), or reproducibility, was about 4%, indicating a relatively high reproducibility, with an average signal of 193 picometers (pm), and a standard deviation of 8 pm.
# To covalently couple RGD-like peptides to the biosensor surface, the biosensor was coated sequentially with a thin layer of silicon oxide (about 3 nm), aminopropylsilane (about 1-3 nm), poly(ethylene-alt-maleic anhydride) (EMA) (forming polymeric clusters), and finally a RGD-like peptide (Gly-Arg-Gly-Asp-Ser, GRGDS). Specifically, a thin layer of silicon oxide was deposited onto the Corning Epic™ niobium oxide waveguide surface up to 3 nm. Afterwards, the biosensor was coated with an aminopropylsilane solution of about 0.1 vol/vol %, washed and dried, followed by the interaction with an EMA solution of about 0.01 wt/vol %, and washed and dried. Finally, a GRGDS solution was applied to the EMA biosensor surface. […]
# [2] = tested on: intracellular protein kinase C (PKC) in Jurkat cells; test: pseudo-RACK1-induced optical signals of Jurkat cells anchored on RWG biosensor surfaces; assay type: cell-based, human
# Text: The Jurkat cells, which present antigens at the cell's surface, were contacted with four different surface types: a bare waveguide substrate having a thin layer of silicon oxide (i.e., SiOx/Nb2O5, uncoated biosensor substrate) (810), a SiOx/Nb2O5 surface having anti-human CD3 (anti-CD3) (820), a SiOx/Nb2O5 surface having amino-reactive polymer EMA coating (EMA) (830), and a SiOx/Nb2O5 surface having covalently coupled anti-human CD3 (i.e., anti-CD3-EMA) (840). The anti-CD3 surface was achieved by incubating a solution containing anti-human CD3 antibody (25 μg/ml) onto the bare SiOx/Nb2O5 surface for 1 hour, followed by washing and drying. The EMA surface was prepared as described above, i.e., by sequentially coating the bare SiOx/Nb2O5 surface with aminopropylsilane and then EMA. The anti-CD3/EMA surface was prepared by incubating anti-human CD3 (25 μg/ml) solution with the EMA surface for 1 hour, followed by blocking with ethanolamine at 1% for 1 hour. The Jurkat cells were incubated on either surface for about 2 hours before assays. The kinetic response, before and after the pseudo-RACK1 addition, was recorded in real time.
# Pseudo-RACK1 is a peptide (OH-lys-lys-trp-lys-met-arg-arg-asn-gln-phe-trp-ile-lys-ile-gln-arg-cys----cys-ser-val-glu-ile-trp-asp-OH) and activates intracellular protein kinase C (PKC).
Molecule,"ATP-induced DMR signal, average signal (CHO-KCNQ cells; CHO-KCNQ cells cultured on discontinuous thin film of silicon dioxide particles on waveguide (FIG. 2B)) [pm]","ATP-induced DMR signal, average signal (CHO-KCNQ cells; CHO-KCNQ cells cultured on unmodified or bare niobia waveguide surface (FIG. 2A)) [pm]","amplitude of initial positive DMR (P-DMR) event, average signal ([1]; 10 micromolar ATP, HEK293 cells on low-density gelatin-coated 384-well Epic microplate, 16 wells (FIG. 6))","ATP-induced DMR response intensity ([1]; 20 micromolar ATP, HEK293 cells on GRGDS-derivatized EMA surfaces made with 10, 30, 100, 250 micromolar GRGDS (FIG. 7))","detection of ATP-induced DMR signals ([1]; HEK293 cells on low-, medium- and high-density gelatin-coated surfaces (FIG. 5))","optical signal after stimulation ([2]; 9 μM, Jurkat cells on anti-CD3, EMA and anti-CD3-EMA surfaces (FIG. 8A))",optical signal after stimulation ([2]; Jurkat cells on bare SiOx/Nb2O5 surface (FIG. 8A))
"Nc1ncnc2c1ncn2[C@@H]1O[C@H](COP(=O)(O)OP(=O)(O)OP(=O)(O)O)[C@@H](O)[C@H]1O [ATP, adenosine triphosphate]",144,115,193 picometers (pm),increasing response intensity,Only the low-density gelatin-coated surface enabled the detection,,
OH-lys-lys-trp-lys-met-arg-arg-asn-gln-phe-trp-ile-lys-ile-gln-arg-cys----cys-ser-val-glu-ile-trp-asp-OH [pseudo-RACK1],,,,,,significant optical signals,did not led to any detectable optical signal

# Reference: US20090061416A1, “Surfaces and methods for biosensor cellular assays” (priority 2007, published 2009)
